# According to patent US11780845B2 (Relay Therapeutics, Inc., priority 2019, dated 2023):
# What was measured:
# FGFR2 = FGFR2 (Homo sapiens (Human), UniProt P21802); test: Biochemical FGFR2 Caliper assay
# SNU-16 = test: Cell SNU-16 assay; format: cell-based; conditions: Homo sapiens, SNU-16, SNU-16 cells
# Chain of FGFR2 (P21802 22-821): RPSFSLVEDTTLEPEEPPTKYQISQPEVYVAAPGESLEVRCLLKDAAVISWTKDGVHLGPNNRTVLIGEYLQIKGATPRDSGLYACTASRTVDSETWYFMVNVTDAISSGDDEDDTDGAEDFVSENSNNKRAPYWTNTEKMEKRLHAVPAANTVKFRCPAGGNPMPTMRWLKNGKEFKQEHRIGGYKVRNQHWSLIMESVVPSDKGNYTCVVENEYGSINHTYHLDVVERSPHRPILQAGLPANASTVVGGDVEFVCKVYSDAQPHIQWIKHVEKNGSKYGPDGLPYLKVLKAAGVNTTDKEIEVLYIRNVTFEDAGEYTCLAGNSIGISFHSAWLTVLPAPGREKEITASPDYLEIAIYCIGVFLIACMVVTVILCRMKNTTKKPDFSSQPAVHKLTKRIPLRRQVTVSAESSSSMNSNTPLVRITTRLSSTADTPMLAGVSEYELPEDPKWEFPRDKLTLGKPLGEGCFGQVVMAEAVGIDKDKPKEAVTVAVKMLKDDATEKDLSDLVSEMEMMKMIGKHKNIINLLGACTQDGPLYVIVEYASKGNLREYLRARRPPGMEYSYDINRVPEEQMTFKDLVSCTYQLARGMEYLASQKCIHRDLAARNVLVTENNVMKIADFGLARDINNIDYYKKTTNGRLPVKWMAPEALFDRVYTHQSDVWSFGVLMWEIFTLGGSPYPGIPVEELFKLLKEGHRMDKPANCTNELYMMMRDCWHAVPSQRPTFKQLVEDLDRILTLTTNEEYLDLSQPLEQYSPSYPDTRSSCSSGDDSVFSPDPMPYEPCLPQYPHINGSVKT
IC50 (FGFR2),IC50 (SNU-16),Compound
1000 to 100000 nM,1000 to 100000 nM,"C=C(C)C(=O)Nc1ccc(-c2c(C3=CC[C@@]4(CC3)Cc3ccc(C)nc3C4=O)c3c(N)ncnc3n2C)cc1 (single isomer, unassigned) [Example 1366]"
< 100 nM,≤ 100 nM,"C=C(C)C(=O)Nc1ccc(-c2c(C3=CC[C@]4(CC3)Cc3ccc(C)nc3C4=O)c3c(N)ncnc3n2C)cc1 (single isomer, unassigned) [Example 1367]"
< 100 nM,≤ 100 nM,C=C(C)C(=O)Nc1ccc(-c2sc3ncnc(N)c3c2-c2ccc(Oc3cccc(C)n3)cc2)cc1 [Example 801]
1000 to 100000 nM,1000 to 100000 nM,C=C(C)C(=O)Nc1ccc(-c2oc3ncnc(N)c3c2-c2ccc(Oc3cccc(C)n3)cc2)cc1 [Example 802]
< 100 nM,100 to 250 nM,C=CC(=O)N1C[C@H](c2c(-c3ccc(Oc4cccc(C)n4)cc3)c3c(N)ncnc3n2C)[C@@H](O)C1 [Example 806]
250 to 1000 nM,250 to 1000 nM,C=CC(=O)N1C[C@@H](O)[C@@H](c2c(-c3ccc(Oc4cccc(C)n4)cc3)c3c(N)ncnc3n2C)C1 [Example 807]
100 to 250 nM,100 to 250 nM,C=C(C)C(=O)Nc1ccc(-c2c(-c3ccc(Oc4cccc(C)n4)cc3)c3c(N)ncnn3c2CO)cc1 [Example 808]
< 100 nM,≤ 100 nM,C=CC(=O)NC1CCC(c2c(-c3ccc(Oc4cccc(C)n4)cc3)c3c(N)ncnc3n2C)C1 (stereo not shown) [Example 810]
100 to 250 nM,250 to 1000 nM,C=CC(=O)N1CCC(c2c(-c3ccc(-n4cc(C)cn4)cc3)c3c(N)ncnc3n2C)C1 (stereo not shown) [Example 811]
250 to 1000 nM,250 to 1000 nM,C=CC(=O)N1CC(F)C(c2c(-c3ccc(Oc4cccc(C)n4)cc3)c3c(N)ncnc3n2C)C1 (stereo not shown) [Example 813]
< 100 nM,≤ 100 nM,C=CC(=O)N1CC(CO)C(c2c(-c3ccc(Oc4cccc(C)n4)cc3)c3c(N)ncnc3n2C)C1 (stereo not shown) [Example 814]
250 to 1000 nM,1000 to 100000 nM,C=C(C)C(=O)Nc1ccc(-c2[nH]c3ncnc(N)c3c2-c2ccc(Oc3ncc(F)cn3)c(F)c2)cc1 [Example 815]
250 to 1000 nM,100 to 250 nM,C=CC(=O)N(C)C1CCC(c2c(-c3ccc(Oc4cccc(C)n4)cc3)c3c(N)ncnc3n2C)C1 (stereo not shown) [Example 816]

# The remaining lines, values behind:
Compound,IC50 (FGFR2),IC50 (SNU-16)
"C=C(C)C(=O)Nc1cc(C)c(-c2c(C3=CC[C@@H](C(=O)N4CCCC4)CC3)c3c(N)ncnc3n2C)c(C)c1 (single isomer, unassigned) [Example 1484]",1000 to 100000 nM,1000 to 100000 nM
"C=C(C)C(=O)Nc1cc(C)c(-c2c(C3=CC[C@H](C(=O)N4CCCC4)CC3)c3c(N)ncnc3n2C)c(C)c1 (single isomer, unassigned) [Example 1486]",1000 to 100000 nM,1000 to 100000 nM
C=CC(=O)N1CCC(c2c(-c3ccc(N4CCCC4=O)nc3)c3c(N)ncnc3n2C)C1 (stereo not shown) [Example 798],250 to 1000 nM,1000 to 100000 nM
C=CC(=O)N1CCC(c2c(-c3ccc(CC4CCCC4)cc3)c3c(N)ncnc3n2C)C1 (stereo not shown) [Example 799],250 to 1000 nM,250 to 1000 nM
C=CC(=O)N1CCC(c2c(-c3ccc(N4CCCC4)c(C(F)(F)F)c3)c3c(N)ncnc3n2C)C1 (stereo not shown) [Example 800],< 100 nM,≤ 100 nM
C=CC(=O)N1CCC(c2c(-c3ccc(N4CCNC4=O)cc3)c3c(N)ncnc3n2C)C1 (stereo not shown) [Example 803],1000 to 100000 nM,1000 to 100000 nM
C=CC(=O)N1CCC(c2c(-c3ccc(OC4CC4)nc3)c3c(N)ncnc3n2C)C1 (stereo not shown) [Example 804],100 to 250 nM,1000 to 100000 nM
C=CC(=O)N1CCC(c2c(-c3ccc(N4CCN(C)C4=O)cc3)c3c(N)ncnc3n2C)C1 (stereo not shown) [Example 805],1000 to 100000 nM,250 to 1000 nM
C=CC(=O)N1C2COCC1C(c1c(-c3ccc(Oc4cccc(C)n4)cc3)c3c(N)ncnc3n1C)C2 (stereo not shown) [Example 812],< 100 nM,≤ 100 nM
C=CC(=O)N1CCC(c2c(-c3cnn(-c4ccccc4C)c3)c3c(N)ncnc3n2C)C1 (stereo not shown) [Example 817],100 to 250 nM,100 to 250 nM
